Reference: ChEMBL document CHEMBL4507268 (2021)

Key:
Conditions in all cases: Compound concentration 1.0 uM
[1] = molecular target: Vascular endothelial growth factor receptor 2 (Homo sapiens) (UniProt P35968)
[2] = molecular target: CDK4/Cyclin D3 (Homo sapiens) (UniProt P11802+P30281)
[3] = molecular target: T1, Serine/threonine-protein kinase Chk1 (Homo sapiens) (UniProt O14757)
T1 sequence (whole entry): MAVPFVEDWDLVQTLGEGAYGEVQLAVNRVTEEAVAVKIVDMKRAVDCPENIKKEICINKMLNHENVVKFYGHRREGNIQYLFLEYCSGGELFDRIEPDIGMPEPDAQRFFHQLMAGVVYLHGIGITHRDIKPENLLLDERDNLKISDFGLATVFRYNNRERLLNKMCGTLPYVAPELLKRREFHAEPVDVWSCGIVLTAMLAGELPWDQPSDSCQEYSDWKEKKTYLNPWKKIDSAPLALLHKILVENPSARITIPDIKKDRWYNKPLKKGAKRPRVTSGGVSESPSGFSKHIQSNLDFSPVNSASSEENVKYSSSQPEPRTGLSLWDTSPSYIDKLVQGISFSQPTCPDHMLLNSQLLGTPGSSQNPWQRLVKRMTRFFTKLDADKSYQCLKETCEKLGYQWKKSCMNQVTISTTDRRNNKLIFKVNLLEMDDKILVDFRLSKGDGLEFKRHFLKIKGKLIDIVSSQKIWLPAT

[4] = molecular target: Tyrosine-protein kinase FRK (Homo sapiens) (UniProt P42685)
Chain of Tyrosine-protein kinase FRK (Homo sapiens) (P42685 whole entry): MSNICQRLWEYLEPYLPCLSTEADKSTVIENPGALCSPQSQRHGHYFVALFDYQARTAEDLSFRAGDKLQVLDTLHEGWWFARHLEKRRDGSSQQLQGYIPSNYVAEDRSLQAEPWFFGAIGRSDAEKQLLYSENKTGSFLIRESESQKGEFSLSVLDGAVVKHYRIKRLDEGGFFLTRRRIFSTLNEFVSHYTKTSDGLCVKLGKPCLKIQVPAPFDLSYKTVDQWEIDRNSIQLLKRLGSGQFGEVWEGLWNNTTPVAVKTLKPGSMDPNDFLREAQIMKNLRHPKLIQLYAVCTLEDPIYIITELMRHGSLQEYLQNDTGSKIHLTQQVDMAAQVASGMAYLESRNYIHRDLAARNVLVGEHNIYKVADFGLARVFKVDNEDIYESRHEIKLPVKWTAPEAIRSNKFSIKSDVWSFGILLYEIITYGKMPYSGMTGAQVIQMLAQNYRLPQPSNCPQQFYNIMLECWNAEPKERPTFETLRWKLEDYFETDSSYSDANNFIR

[5] = molecular target: T2, Ephrin type-A receptor 8 (Homo sapiens) (UniProt P29322)
T2 sequence (whole entry): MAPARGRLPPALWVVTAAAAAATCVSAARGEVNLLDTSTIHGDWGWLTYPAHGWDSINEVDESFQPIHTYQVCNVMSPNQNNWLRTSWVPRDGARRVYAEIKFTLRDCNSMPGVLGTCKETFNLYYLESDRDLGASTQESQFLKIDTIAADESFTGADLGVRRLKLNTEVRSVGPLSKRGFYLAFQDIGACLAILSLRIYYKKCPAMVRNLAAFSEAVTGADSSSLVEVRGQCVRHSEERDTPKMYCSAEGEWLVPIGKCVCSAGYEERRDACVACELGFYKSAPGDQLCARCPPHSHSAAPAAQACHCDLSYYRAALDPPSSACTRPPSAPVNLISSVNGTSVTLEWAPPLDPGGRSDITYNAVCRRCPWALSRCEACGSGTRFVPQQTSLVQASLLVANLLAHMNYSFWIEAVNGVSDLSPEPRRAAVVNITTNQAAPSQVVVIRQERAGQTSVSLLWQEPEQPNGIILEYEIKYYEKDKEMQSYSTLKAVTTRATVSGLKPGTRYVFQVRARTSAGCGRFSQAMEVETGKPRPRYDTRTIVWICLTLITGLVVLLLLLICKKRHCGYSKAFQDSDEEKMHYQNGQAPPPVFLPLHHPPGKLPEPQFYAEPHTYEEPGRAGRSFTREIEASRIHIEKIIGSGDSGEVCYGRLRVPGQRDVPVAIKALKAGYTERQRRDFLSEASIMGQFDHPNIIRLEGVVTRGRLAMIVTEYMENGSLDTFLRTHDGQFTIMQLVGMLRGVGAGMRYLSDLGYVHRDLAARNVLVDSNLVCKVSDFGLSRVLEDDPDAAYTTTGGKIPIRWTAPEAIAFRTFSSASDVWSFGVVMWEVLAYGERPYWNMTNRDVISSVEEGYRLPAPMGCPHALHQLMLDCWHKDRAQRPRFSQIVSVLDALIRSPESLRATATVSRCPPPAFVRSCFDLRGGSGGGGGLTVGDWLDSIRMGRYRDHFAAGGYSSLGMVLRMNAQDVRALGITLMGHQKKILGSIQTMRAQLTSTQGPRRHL

[6] = molecular target: T3, Serine/threonine-protein kinase DCLK3 (Homo sapiens) (UniProt Q9C098)
T3 sequence (whole entry): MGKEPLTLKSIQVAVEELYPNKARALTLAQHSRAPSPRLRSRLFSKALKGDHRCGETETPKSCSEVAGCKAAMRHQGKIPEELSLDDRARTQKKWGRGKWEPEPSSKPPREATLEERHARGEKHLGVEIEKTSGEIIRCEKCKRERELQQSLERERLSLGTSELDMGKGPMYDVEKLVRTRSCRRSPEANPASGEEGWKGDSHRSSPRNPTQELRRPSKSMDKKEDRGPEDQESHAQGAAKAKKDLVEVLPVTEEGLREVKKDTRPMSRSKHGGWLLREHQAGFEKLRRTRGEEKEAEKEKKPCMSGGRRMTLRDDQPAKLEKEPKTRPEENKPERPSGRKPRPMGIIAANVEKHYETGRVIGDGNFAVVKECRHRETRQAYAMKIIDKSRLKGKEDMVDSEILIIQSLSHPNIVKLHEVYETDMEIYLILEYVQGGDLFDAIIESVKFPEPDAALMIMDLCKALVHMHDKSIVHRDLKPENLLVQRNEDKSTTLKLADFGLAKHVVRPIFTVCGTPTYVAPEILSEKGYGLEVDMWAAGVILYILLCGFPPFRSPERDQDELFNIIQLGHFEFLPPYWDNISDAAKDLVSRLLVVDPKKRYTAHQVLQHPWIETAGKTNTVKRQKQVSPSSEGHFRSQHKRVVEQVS

[7] = molecular target: Phosphorylase b kinase gamma catalytic chain, skeletal muscle/heart isoform (Homo sapiens) (UniProt Q16816)
Chain of Phosphorylase b kinase gamma catalytic chain, skeletal muscle/heart isoform (Homo sapiens) (Q16816 whole entry, looked up, canonical isoform): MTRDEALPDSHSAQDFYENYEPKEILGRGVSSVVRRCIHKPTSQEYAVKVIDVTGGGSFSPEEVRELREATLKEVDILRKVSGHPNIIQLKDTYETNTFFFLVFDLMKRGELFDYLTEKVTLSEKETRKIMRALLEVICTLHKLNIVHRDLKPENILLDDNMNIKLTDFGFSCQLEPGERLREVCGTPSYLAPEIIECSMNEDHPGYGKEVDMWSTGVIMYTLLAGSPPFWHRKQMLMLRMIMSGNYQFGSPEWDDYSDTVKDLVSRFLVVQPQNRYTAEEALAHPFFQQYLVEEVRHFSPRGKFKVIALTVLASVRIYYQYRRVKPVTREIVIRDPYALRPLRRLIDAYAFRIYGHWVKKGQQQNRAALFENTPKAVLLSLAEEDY

Measured: % residual kinase activity

Chain of Vascular endothelial growth factor receptor 2 (Homo sapiens) (P35968 whole entry): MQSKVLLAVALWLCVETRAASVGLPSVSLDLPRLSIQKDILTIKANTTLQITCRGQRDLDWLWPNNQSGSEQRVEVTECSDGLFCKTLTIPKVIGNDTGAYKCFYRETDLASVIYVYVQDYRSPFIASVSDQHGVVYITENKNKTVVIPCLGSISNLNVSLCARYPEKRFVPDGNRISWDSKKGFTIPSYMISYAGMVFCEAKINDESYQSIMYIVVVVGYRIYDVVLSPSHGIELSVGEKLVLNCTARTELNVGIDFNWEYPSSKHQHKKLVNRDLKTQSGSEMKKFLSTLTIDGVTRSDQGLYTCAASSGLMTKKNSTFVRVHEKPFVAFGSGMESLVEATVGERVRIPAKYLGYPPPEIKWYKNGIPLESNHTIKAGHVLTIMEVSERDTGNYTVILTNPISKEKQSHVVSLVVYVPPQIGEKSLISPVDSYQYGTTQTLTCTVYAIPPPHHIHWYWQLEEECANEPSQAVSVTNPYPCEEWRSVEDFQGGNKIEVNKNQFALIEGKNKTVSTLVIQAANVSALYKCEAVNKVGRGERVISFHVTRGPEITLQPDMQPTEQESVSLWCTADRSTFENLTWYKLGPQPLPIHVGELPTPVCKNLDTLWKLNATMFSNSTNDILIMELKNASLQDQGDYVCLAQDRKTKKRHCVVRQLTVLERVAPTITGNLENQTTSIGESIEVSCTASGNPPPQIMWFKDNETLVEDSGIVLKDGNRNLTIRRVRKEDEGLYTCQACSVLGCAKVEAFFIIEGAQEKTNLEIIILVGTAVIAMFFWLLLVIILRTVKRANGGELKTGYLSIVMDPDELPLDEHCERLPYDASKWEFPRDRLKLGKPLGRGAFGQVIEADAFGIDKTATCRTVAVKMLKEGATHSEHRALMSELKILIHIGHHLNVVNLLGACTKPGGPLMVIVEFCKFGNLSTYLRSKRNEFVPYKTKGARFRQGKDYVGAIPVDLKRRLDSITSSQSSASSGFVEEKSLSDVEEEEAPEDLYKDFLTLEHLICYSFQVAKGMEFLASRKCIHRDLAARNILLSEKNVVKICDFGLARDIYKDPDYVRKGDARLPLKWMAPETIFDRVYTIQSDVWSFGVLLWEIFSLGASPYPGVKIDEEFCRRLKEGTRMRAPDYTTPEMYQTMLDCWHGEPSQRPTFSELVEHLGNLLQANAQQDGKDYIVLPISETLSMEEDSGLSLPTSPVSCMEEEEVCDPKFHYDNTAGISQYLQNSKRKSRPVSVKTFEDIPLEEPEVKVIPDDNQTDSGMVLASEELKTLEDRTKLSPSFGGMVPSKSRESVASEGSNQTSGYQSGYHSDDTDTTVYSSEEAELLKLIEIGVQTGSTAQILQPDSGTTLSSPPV

CN1CCN(c2cnc3c(C4CCN(C(=O)c5ccc(OC(F)(F)F)cc5N)CC4)ncnc3c2)CC1 [BAY-885]
inactive: [1] 100% | [2] 106% | [3] 89% | [4] 109% | [5] 104% | [6] 92% | [7] 103%
